# Data reported in ChEMBL document CHEMBL6078630, “Design, synthesis, and bioactivity investigation of novel cyclic lipopeptide antibiotics targeting top-priority multidrug-resistant gram-negative bacteria” (Eur J Med Chem, 2024).
# Bridge positions count the residues as written; N and C are the ends. Square brackets hold non-standard residues; d marks the D form. Peptide text beside a SMILES is read from it. * marks the point of attachment. Heptanoyl(6-Me) = CC(C)CCCCC(=O)*; dNle = CCCC[C@@H](N)C(=O)O; dOrn = NCCC[C@@H](N)C(=O)O; Octanoyl = CCCCCCCC(=O)*; Orn = NCCC[C@H](N)C(=O)O; Dab = NCC[C@H](N)C(=O)O; Dap = NC[C@H](N)C(=O)O
# Key:
# [1] = test system: Escherichia coli; test: Antibacterial activity against Escherichia coli ATCC BAA-2523 assessed as inhibition of bacterial growth incubated for 16 to 20 hrs by CLSI protocol based broth microdilution method; format: functional; conditions: time 16-20 hrs
# [2] = test system: Escherichia coli; test: Antibacterial activity against carbapenem-resistant Escherichia coli ATCC BAA-2340 assessed as inhibition of bacterial growth incubated for 16 to 20 hrs by CLSI protocol based broth microdilution method; format: functional; conditions: time 16-20 hrs
# [3] = test system: Klebsiella pneumoniae; test: Antibacterial activity against carbapenem-resistant Klebsiella pneumoniae clinical isolate KPN+19-15 assessed as inhibition of bacterial growth incubated for 16 to 20 hrs by CLSI protocol based broth microdilution method; format: functional; conditions: time 16-20 hrs
# [4] = test system: Klebsiella pneumoniae; test: Antibacterial activity against carbapenem-resistant Klebsiella pneumoniae ATCC BAA-1705 assessed as inhibition of bacterial growth incubated for 16 to 20 hrs by CLSI protocol based broth microdilution method; format: functional; conditions: time 16-20 hrs
# [5] = test system: Pseudomonas aeruginosa; test: Antibacterial activity against carbapenem-resistant Pseudomonas aeruginosa clinical isolate 19-3 assessed as inhibition of bacterial growth incubated for 16 to 20 hrs by CLSI protocol based broth microdilution method; format: functional; conditions: time 16-20 hrs
# [6] = test system: Pseudomonas aeruginosa; test: Antibacterial activity against Pseudomonas aeruginosa ATCC 27853 assessed as inhibition of bacterial growth incubated for 16 to 20 hrs by CLSI protocol based broth microdilution method; format: functional; conditions: time 16-20 hrs
# [7] = test system: Acinetobacter baumannii; test: Antibacterial activity against carbapenem-sensitive Acinetobacter baumannii clinical isolate 19-1 assessed as inhibition of bacterial growth incubated for 16 to 20 hrs by CLSI protocol based broth microdilution method; format: functional; conditions: time 16-20 hrs
# [8] = test system: Acinetobacter baumannii; test: Antibacterial activity against Acinetobacter baumannii NCTC 13304 (OXA-27) assessed as inhibition of bacterial growth incubated for 16 to 20 hrs by CLSI protocol based broth microdilution method; format: functional; conditions: time 16-20 hrs
# [9] = Renal cytotoxicity against HK-2 cells incubated for 72 hrs by CCK8 assay; format: toxicity, cell-based; conditions: human
Structure (SMILES),MIC [1] [µg/mL],MIC [2] [µg/mL],MIC [3] [µg/mL],MIC [4] [µg/mL],MIC [5] [µg/mL],MIC [6] [µg/mL],MIC [7] [µg/mL],MIC [8] [µg/mL],IC50 at 72 h [9] [µg/mL]
C[C@@H](O)[C@@H]1NC(=O)[C@H](CCN)NC(=O)[C@H](CCN)NC(=O)[C@H]([C@@H](C)O)NC(=O)[C@H](Cc2ccccc2)NC(=O)[C@H](CCN)NC(=O)[C@@H](NC(=O)[C@@H](CO)NC(=O)[C@@H](NC(=O)[C@H](CCN)NC(=O)CCCCCCC(=O)O)[C@@H](C)O)CCNC1=O,≤ 0.03,≤ 0.03,≤ 0.03,0.06,4,4,0.06,≤ 0.03,> 500
CC(C)CCCCC(=O)N[C@@H](CCN)C(=O)N[C@H](C(=O)N[C@@H](CCCCN)C(=O)N[C@H]1CCNC(=O)[C@H]([C@@H](C)O)NC(=O)[C@H](CCN)NC(=O)[C@H](CCN)NC(=O)[C@H]([C@@H](C)O)NC(=O)[C@@H](Cc2ccccc2)NC(=O)[C@H](CCN)NC1=O)[C@@H](C)O,0.25,0.25,0.25,0.25,4,> 64,2,1,> 500
CC(C)CCCCC(=O)N[C@@H](CCN)C(=O)N[C@H](C(=O)N[C@H](CO)C(=O)N[C@H]1CCNC(=O)[C@H]([C@@H](C)O)NC(=O)[C@H](CCN)NC(=O)[C@H](CCN)NC(=O)[C@H]([C@@H](C)O)NC(=O)[C@@H](Cc2ccccc2)NC(=O)[C@H](CCCN)NC1=O)[C@@H](C)O ({Heptanoyl(6-Me)}-[Dab]T[dS][Dab][Orn][dF]T[Dab][Dab]T; lactam 4-C),8,4,64,8,> 64,> 64,> 64,64,> 500
CC(C)CCCCC(=O)N[C@@H](CCN)C(=O)N[C@H](C(=O)N[C@H](CO)C(=O)N[C@H]1CCNC(=O)[C@H]([C@@H](C)O)NC(=O)[C@H](CCCN)NC(=O)[C@H](CCN)NC(=O)[C@H]([C@@H](C)O)NC(=O)[C@@H](Cc2ccccc2)NC(=O)[C@H](CCN)NC1=O)[C@@H](C)O ({Heptanoyl(6-Me)}-[Dab]T[dS][Dab][Dab][dF]T[Dab][Orn]T; lactam 4-C),0.25,0.25,0.5,1,> 64,> 64,8,8,> 500
CC(C)CCCCC(=O)N[C@@H](CN)C(=O)N[C@H](C(=O)N[C@H](CO)C(=O)N[C@H]1CCNC(=O)[C@H]([C@@H](C)O)NC(=O)[C@H](CCN)NC(=O)[C@H](CCN)NC(=O)[C@H]([C@@H](C)O)NC(=O)[C@@H](Cc2ccccc2)NC(=O)[C@H](CCN)NC1=O)[C@@H](C)O ({Heptanoyl(6-Me)}-[Dap]T[dS][Dab][Dab][dF]T[Dab][Dab]T; lactam 4-C),≤ 0.03,≤ 0.03,0.5,0.25,4,64,0.25,0.25,> 500
CC(C)CCCCC(=O)N[C@@H](CCN)C(=O)N[C@H](C(=O)N[C@H](CCCN)C(=O)N[C@H]1CCNC(=O)[C@H]([C@@H](C)O)NC(=O)[C@H](CCN)NC(=O)[C@H](CCN)NC(=O)[C@H]([C@@H](C)O)NC(=O)[C@@H](Cc2ccccc2)NC(=O)[C@H](CCN)NC1=O)[C@@H](C)O ({Heptanoyl(6-Me)}-[Dab]T[dOrn][Dab][Dab][dF]T[Dab][Dab]T; lactam 4-C),≤ 0.03,≤ 0.03,0.125,0.06,1,0.25,0.125,0.06,> 500
CC(C)CCCCC(=O)N[C@@H](CCN)C(=O)N[C@H](C(=O)N[C@H](CCCCN)C(=O)N[C@H]1CCNC(=O)[C@H]([C@@H](C)O)NC(=O)[C@H](CCN)NC(=O)[C@H](CCN)NC(=O)[C@H]([C@@H](C)O)NC(=O)[C@@H](Cc2ccccc2)NC(=O)[C@H](CCN)NC1=O)[C@@H](C)O,0.125,1,0.25,0.125,4,32,0.5,0.5,> 500
CCCCCCCC(=O)N[C@@H](CCN)C(=O)N[C@H](C(=O)N[C@@H](CCN)C(=O)N[C@H]1CCNC(=O)[C@H]([C@@H](C)O)NC(=O)[C@H](CCN)NC(=O)[C@H](CCN)NC(=O)[C@H]([C@@H](C)O)NC(=O)[C@@H](Cc2ccccc2)NC(=O)[C@H](CCN)NC1=O)[C@@H](C)O (Octanoyl-[Dab]T[Dab][Dab][Dab][dF]T[Dab][Dab]T; lactam 4-C) [listing 1 of 2 here],≤ 0.03,0.06,≤ 0.03,0.5,0.5,0.5,0.5,0.25,–
CCCCCCCC(=O)N[C@@H](CCN)C(=O)N[C@H](C(=O)N[C@@H](CCN)C(=O)N[C@H]1CCNC(=O)[C@H]([C@@H](C)O)NC(=O)[C@H](CCN)NC(=O)[C@H](CCN)NC(=O)[C@H]([C@@H](C)O)NC(=O)[C@@H](CCC)NC(=O)[C@H](CCN)NC1=O)[C@@H](C)O [listing 1 of 2 here],–,–,–,–,–,–,–,–,> 500
CCCCCCCC(=O)N[C@@H](CCN)C(=O)N[C@H](C(=O)N[C@@H](CCN)C(=O)N[C@H]1CCNC(=O)[C@H]([C@@H](C)O)NC(=O)[C@H](CCN)NC(=O)[C@H](CCN)NC(=O)[C@H]([C@@H](C)O)NC(=O)[C@@H](CC(C)C)NC(=O)[C@H](CCN)NC1=O)[C@@H](C)O (Octanoyl-[Dab]T[Dab][Dab][Dab][dL]T[Dab][Dab]T; lactam 4-C) [listing 1 of 2 here],0.25,0.06,0.25,2,0.5,1,1,1,–
CCCCCCCC(=O)N[C@@H](CCN)C(=O)N[C@H](C(=O)N[C@@H](CCN)C(=O)N[C@H]1CCNC(=O)[C@H]([C@@H](C)O)NC(=O)[C@H](CCN)NC(=O)[C@H](CCN)NC(=O)[C@H]([C@@H](C)O)NC(=O)[C@@H](CC(C)C)NC(=O)[C@H](CCN)NC1=O)[C@@H](C)O (Octanoyl-[Dab]T[Dab][Dab][Dab][dL]T[Dab][Dab]T; lactam 4-C) [listing 2 of 2 here],–,–,–,–,–,–,–,–,> 500
CCCCCCCC(=O)N[C@@H](CCN)C(=O)N[C@H](C(=O)N[C@@H](CCN)C(=O)N[C@H]1CCNC(=O)[C@H]([C@@H](C)O)NC(=O)[C@H](CCN)NC(=O)[C@H](CCN)NC(=O)[C@H]([C@@H](C)O)NC(=O)[C@@H](CCC)NC(=O)[C@H](CCN)NC1=O)[C@@H](C)O [listing 2 of 2 here],0.25,0.5,0.5,2,1,1,4,4,–
CCCCCCCC(=O)N[C@@H](CCN)C(=O)N[C@H](C(=O)N[C@@H](CCN)C(=O)N[C@H]1CCNC(=O)[C@H]([C@@H](C)O)NC(=O)[C@H](CCN)NC(=O)[C@H](CCN)NC(=O)[C@H]([C@@H](C)O)NC(=O)[C@@H](Cc2ccccc2)NC(=O)[C@H](CCN)NC1=O)[C@@H](C)O (Octanoyl-[Dab]T[Dab][Dab][Dab][dF]T[Dab][Dab]T; lactam 4-C) [listing 2 of 2 here],–,–,–,–,–,–,–,–,> 500
CC(C)CCCCC(=O)N[C@@H](CCN)C(=O)N[C@H](C(=O)N[C@@H](CCN)C(=O)N[C@H]1CCNC(=O)[C@H]([C@@H](C)O)NC(=O)[C@H](CCN)NC(=O)[C@H](CCN)NC(=O)[C@H]([C@@H](C)O)NC(=O)[C@@H](Cc2ccccc2)NC(=O)[C@H](CCN)NC1=O)[C@@H](C)O ({Heptanoyl(6-Me)}-[Dab]T[Dab][Dab][Dab][dF]T[Dab][Dab]T; lactam 4-C) [listing 1 of 2 here],–,–,–,–,–,–,–,–,> 500
CCCCCCCC(=O)N[C@@H](CCN)C(=O)N[C@H](C(=O)N[C@@H](CCN)C(=O)N[C@H]1CCNC(=O)[C@H]([C@@H](C)O)NC(=O)[C@H](CCN)NC(=O)[C@H](CCN)NC(=O)[C@H]([C@@H](C)O)NC(=O)[C@@H](CCCC)NC(=O)[C@H](CCN)NC1=O)[C@@H](C)O (Octanoyl-[Dab]T[Dab][Dab][Dab][dNle]T[Dab][Dab]T; lactam 4-C) [listing 1 of 2 here],0.125,0.125,0.125,2,1,1,1,1,–
CCCCCCCC(=O)N[C@@H](CCN)C(=O)N[C@H](C(=O)N[C@@H](CCN)C(=O)N[C@H]1CCNC(=O)[C@H]([C@@H](C)O)NC(=O)[C@H](CCN)NC(=O)[C@H](CCN)NC(=O)[C@H]([C@@H](C)O)NC(=O)[C@@H](CCCC)NC(=O)[C@H](CCN)NC1=O)[C@@H](C)O (Octanoyl-[Dab]T[Dab][Dab][Dab][dNle]T[Dab][Dab]T; lactam 4-C) [listing 2 of 2 here],–,–,–,–,–,–,–,–,> 500
CC(C)CCCCC(=O)N[C@@H](CCN)C(=O)N[C@H](C(=O)N[C@@H](CCN)C(=O)N[C@H]1CCNC(=O)[C@H]([C@@H](C)O)NC(=O)[C@H](CCN)NC(=O)[C@H](CCN)NC(=O)[C@H]([C@@H](C)O)NC(=O)[C@@H](Cc2ccccc2)NC(=O)[C@H](CCN)NC1=O)[C@@H](C)O ({Heptanoyl(6-Me)}-[Dab]T[Dab][Dab][Dab][dF]T[Dab][Dab]T; lactam 4-C) [listing 2 of 2 here],0.06,≤ 0.03,≤ 0.03,0.5,1,1,0.5,0.25,–
